Consider 14 compounds from patent US20190382358A1, “HETEROCYCLIC COMPOUNDS AS PESTICIDES” (Bayer CropScience Aktiengesellschaft, priority 2016, published 2019).

Common to all, as to type: in vivo
The test system of one series is Phaedon cochleariae. The experiment in a line: Phaedon cochleariae spray test. To be noted: for mortality at 500 g/ha: Phaedon cochleariae, in Brassica rapa, foliar, 168 h, read-out: mortality in %. The protocol: Phaedon cochleariae—Spray Test
(§1) To produce a suitable preparation of active compound, 1 part by weight of active compound is mixed with the stated amount of solvents and is diluted with water, containing an emulsifier concentration of 1000 ppm, to the desired concentration. Further test concentrations are prepared by dilution with emulsifier containing water.
Chinese cabbage (Brassica pekinensis) leaf disks are sprayed with a preparation of the active ingredient of the desired concentration. Once dry, the leaf disks are infested with mustard beetle larvae (Phaedon cochleariae).
After 7 days mortality in % is determined. 100% means all beetle larvae have been killed and 0% means none of the beetle larvae have been killed.

Another series has as its system Tetranychus urticae. The experiment in a line: Tetranychus urticae spray test OP-resistant. To be noted: foliar, 144 h, after 6 days, French bean leaf disks. The protocol:
Tetranychus urticae—Spray Test OP-Resistant
as §1
French bean (Phaseolus vulgaris) leaf disks infected with all instars of the two spotted spidermite (Tetranychus urticae), are sprayed with a preparation of the active ingredient of the desired concentration.
After 6 days mortality in % is determined. 100% means all spider mites have been killed and 0% means none of the spider mites have been killed.

For another series, the system named is Euschistus heros. As to the kind of experiment: Euschistus heros spray test (feeding control). To be noted: 100 ppm; after 3 days; kidney bean plants, larvae. How it is done:
Euschistus heros—Spray Test
(§2) To produce a suitable preparation of active compound, 1 part by weight of active compound is mixed with the stated amount of solvent and is diluted with water to the desired concentration. Further test concentrations are prepared by dilution with water Ammonium salt and/or penetration enhancer (rapeseed oil methyl esters) in a dosage of 1000 ppm are added to the desired concentration if necessary.
Kidney bean plants (Phaseolus vulgaris) are treated by being sprayed with the preparation of the active compound of the desired concentration and are infested with 10 larvae per plant of the brown stink bug (Euschistus heros).
(§3) After 3 days feeding control in % is determined. 100% means there is no feeding damage visible and 0% means the plant damage corresponds to that of the untreated control plants.

Series [1] has as its system Nezara viridula. As to the kind of experiment: Nezara viridula spray test (barley plants, mortality). The settings on record: for mortality at 20 g/ha / mortality at 100 g/ha / mortality at 500 g/ha: Nezara viridula, 96 h, read-out: mortality in %. The protocol: (§4) Nezara viridula—Spray Test
To produce a suitable preparation of active compound, 1 part by weight of active compound is mixed with the stated amount of solvent, and the concentrate is diluted with water, containing an emulsifier concentration of 1000 ppm, to the desired concentration Ammonium salt and/or penetration enhancer in a dosage of 1000 ppm are added to the desired concentration if necessary.
Barley plants (Hordeum vulgare) infested with larvae of the southern green stink bug (Nezara viridula) are sprayed with a test solution containing the desired concentration of the active ingredient.
After 4 days, mortality in % is determined. 100% means all the stink bugs have been killed; 0% means none of the stink bugs have been killed.

The subject of another series is Meloidogyne incognita. The experiment in a line: Meloidogyne incognita test. The settings on record: 20 ppm; after 14 days; salad seedlings, eggs and larvae. How it is done:
Meloidogyne incognita—Test
To produce a suitable preparation of active compound, 1 part by weight of active compound is mixed with the stated amount of solvent, and the concentrate is diluted with water to the desired concentration.
Vessels are filled with sand, a solution of the active ingredient, a suspension containing eggs and larvae of the southern root-knot nematode (Meloidogyne incognita) and salad seeds. The salad seeds germinate and the seedlings grow. Galls develop in the roots.
After 14 days the nematicidal activity is determined on the basis of the percentage of gall formation. 100% means no galls were found and 0% means the number of galls found on the roots of the treated plants was equal to that in untreated control plants.

The subject of the next series is Nilaparvata lugens. The experiment in a line: Nilaparvata lugens spray test. The settings on record: 96 h, after 4 days, rice plants, larvae. How it is done: Nilaparvata lugens—Spray Test
To produce a suitable preparation of active compound, 1 part by weight of active compound is mixed with the stated amount of solvents and is diluted with water, containing an emulsifier concentration of 1000 ppm, to the desired concentration. Further test concentrations are prepared by dilution with emulsifier containing water. Ammonium salt and/or penetration enhancer in a dosage of 1000 ppm are added to the desired concentration if necessary.
Rice plants (Oryza sativa) are treated by being sprayed with the desired concentration of the active compound and are infested with larvae of the brown planthopper (Nilaparvata lugens).
After 4 days mortality in % is determined. 100% means all planthoppers have been killed and 0% means none of the planthoppers have been killed.

The subject of the next series is Spodoptera frugiperda. The experiment in a line: Spodoptera frugiperda spray test. To be noted: 168 h, after 7 days, maize leaf sections, larvae. The protocol:
Spodoptera frugiperda—Spray Test
as §1
Maize (Zea mays) leaf sections are sprayed with a preparation of the active ingredient of the desired concentration. Once dry, the leaf sections are infested with fall armyworm larvae (Spodoptera frugiperda).
After 7 days mortality in % is determined. 100% means all caterpillars have been killed and 0% means none of the caterpillars have been killed.

For the next series, the system named is Diabrotica balteata. As to the kind of experiment: Diabrotica balteata spray test. The settings on record: 160 μg/well; after 7 days; wheat seeds, larvae of banded cucumber beetle. The protocol:
Diabrotica balteata-Spray Test
To produce a suitable preparation of active compound, 1 part by weight of active compound is mixed with the stated amount of solvent, and the concentrate is diluted with water, containing an emulsifier concentration of 1000 ppm, to the desired concentration. Further test concentrations are prepared by dilution with emulsifier containing water.
Soaked wheat seeds (Triticum aestivum) are placed in a multiple well plate filled with agar and some water and are incubated for 1 day to germinate (5 seeds per well). The germinated wheat seeds are sprayed with a test solution containing the desired concentration of the active ingredient. Afterwards each unit is infected with 10-20 larvae of the banded cucumber beetle (Diabrotica balteata).
After 7 days efficacy in % is determined. 100% means all the seedlings have grown up like in the untreated, uninfected control; 0% means none of the seedlings have grown.

Series [2] has as its system Nezara viridula. The experiment in a line: Nezara viridula spray test (cotton plants, feeding control). The settings on record: 100 ppm, after 3 days, larvae. The protocol:
as §4, §2
Cotton plants (Gossypium hirsutum) are treated by being sprayed with the preparation of the active compound of the desired concentration and are infested with 10 larvae per plant of the green plant bug (Nezara viridula).
as §3

One may read the mortality as the percentage killed. Take `O=C(Nc1nc(-c2c(F)cc(C(F)(F)F)cc2F)ns1)c1cccnc1C(F)(F)F` [Compound I-1-1]: the values for the mortality at 500 g/ha in the series on Phaedon cochleariae and in the series with Tetranychus urticae were 100% and 90%, respectively.

For `O=C(Nc1nc(-c2c(F)ccc(C(F)(F)F)c2F)ns1)c1cccnc1C(F)(F)F` [Compound I-1-2, N-{3-[2,6-difluoro-3-(trifluoromethyl)phenyl]-1,2,4-thiadiazol-5-yl}-2-(trifluoromethyl)nicotinamide], in the series on Euschistus heros, the “feeding control in %” value was 85%. The mortality at 500 g/ha in the series with Phaedon cochleariae was 100%; with Nezara viridula [1] it was 100%; with Nilaparvata lugens, at least 90%; in the series on Tetranychus urticae, 90%; with Spodoptera frugiperda it was at least 83%. In addition, the mortality at 20 g/ha in the series with Nezara viridula [1] turned out to be 100%. In addition, the mortality at 100 g/ha in the series on Nezara viridula [1] turned out to be 100%. Further, the “nematicidal activity (% reduction of galls vs untreated control)” value in the series with Meloidogyne incognita was 90%.

On to `O=C(Nc1nc(-c2c(F)ccc(C(F)(F)F)c2F)ns1)c1ccccc1C(F)(F)F` [Compound I-1-3, N-{3-[2,6-difluoro-3-(trifluoromethyl)phenyl]-1,2,4-thiadiazol-5-yl}-2-(trifluoromethyl)benzamide], for which, in the series on Phaedon cochleariae, the mortality at 500 g/ha amounted to 100%. For the same compound, in the series on Nezara viridula [1], the mortality at 100 g/ha was determined as 100% and the mortality at 500 g/ha worked out at 100%.

For the compound `O=C(Nc1nc(-c2c(F)ccc(Cl)c2F)ns1)c1cccnc1C(F)(F)F` [Compound I-1-6, N-[3-(3-chloro-2,6-difluorophenyl)-1,2,4-thiadiazol-5-yl]-2-(trifluoromethyl)nicotinamide], the mortality at 500 g/ha was 100% in the series on Phaedon cochleariae, 100% with Nezara viridula [1], 90% in the series on Tetranychus urticae and at least 83% with Spodoptera frugiperda. Moreover, in the series on Nezara viridula [1], the mortality at 20 g/ha is 100%. For the same compound, the mortality at 100 g/ha with Nezara viridula [1] worked out at 100%.

Take `O=C(Nc1nc(-c2cc(F)cc(F)c2F)ns1)c1ccccc1Cl` [Compound I-1-21]: in the series with Nezara viridula [1] (500 g/ha, after 4 days, barley plants, larvae), the mortality in % is on record as 80%.

For the compound `O=C(Nc1nc(-c2c(F)ccc(F)c2F)ns1)c1cccnc1C(F)(F)F` [Compound I-1-24], the “nematicidal activity (% reduction of galls vs untreated control)” value in the series on Meloidogyne incognita is 90%. In addition, in the series on Diabrotica balteata, the efficacy in % is given as 100%.

In the case of `O=C(Nc1nc(-c2c(F)ccc(F)c2F)ns1)c1cccnc1C(F)F` [Compound I-1-27], in the series on Nezara viridula [2], the “feeding control in %” value turned out to be 100%.

`O=C(Nc1nc(-c2c(F)ccc(F)c2F)ns1)c1ccccc1Cl` [Compound I-1-30]: the “nematicidal activity (% reduction of galls vs untreated control)” value with Meloidogyne incognita is recorded as 90%. The same compound displayed an efficacy in % in the series on Diabrotica balteata of 100%.

Turning to `O=C(Nc1nc(-c2c(F)c(F)cc(F)c2F)ns1)c1cccnc1C(F)(F)F` [Compound I-1-33], the “feeding control in %” value in the series on Euschistus heros and in the series with Nezara viridula [2] was 100% each time. The “nematicidal activity (% reduction of galls vs untreated control)” value in the series with Meloidogyne incognita is reported as 90%. In the series on Diabrotica balteata, this compound gave an efficacy in % of 100%.

Take `O=C(Nc1nc(-c2c(F)c(F)cc(F)c2F)ns1)c1ccccc1C(F)(F)F` [Compound I-1-34]: the efficacy in % in the series on Diabrotica balteata is recorded as 100%.

Take `O=C(Nc1nc(-c2c(F)c(F)cc(F)c2F)ns1)c1nccnc1C(F)(F)F` [Compound I-1-35]: the “nematicidal activity (% reduction of galls vs untreated control)” value with Meloidogyne incognita worked out at 90%.

In the series with Phaedon cochleariae (500 g/ha, after 7 days, Chinese cabbage leaf disks, larvae), `O=C(Nc1nc(-c2cc(Cl)cc(F)c2F)ns1)c1c(F)cccc1F` [Compound I-1-46] had a mortality in % of 83%.

Turning to `O=C(Nc1nc(-c2c(F)ccc(Br)c2F)ns1)c1cccnc1C(F)(F)F` [Compound I-1-51, N-[3-(3-bromo-2,6-difluorophenyl)-1,2,4-thiadiazol-5-yl]-2-(trifluoromethyl)nicotinamide], the mortality at 500 g/ha is 100% in the series with Phaedon cochleariae, 100% with Nezara viridula [1], 90% in the series on Tetranychus urticae and at least 83% in the series with Spodoptera frugiperda. Besides, the mortality at 20 g/ha with Nezara viridula [1] was 100%. Besides, the mortality at 100 g/ha in the series with Nezara viridula [1] was 100%. Moreover, in the series with Nezara viridula [2], the “feeding control in %” value stood at 100%. In the series on Diabrotica balteata, the efficacy in % is given as 100%.

With `Cc1ccc(F)c(-c2nsc(NC(=O)c3cccnc3C(F)(F)F)n2)c1F` [Compound I-1-52, N-[3-(2,6-difluoro-3-methylphenyl)-1,2,4-thiadiazol-5-yl]-2-(trifluoromethyl)nicotinamide], the mortality at 500 g/ha with Phaedon cochleariae and in the series on Nezara viridula [1] was 100% throughout. For the same compound, the mortality at 100 g/ha in the series on Nezara viridula [1] amounted to 100%.
